Reference: patent US6787557B2 (priority 2000, dated 2004)
Where “and” joins values, the source holds several entries; their conditions need not be identical. Identical values can stand only once. Like-named read-outs stand apart in the source and are kept apart here.

How the values were obtained:
[1] = test system: rice blast fungi; assay type: in vivo, Pyricularia oryzae
[2] = test system: rice blast fungi; assay type: in vivo, Pyricularia oryzae; remark: listed apart in the source

Compound	Protective value ([1]; 3 ppm)	Protective value ([1]; 10 ppm)	Protective value ([2]; 30 ppm)	Protective value ([2]; 100 ppm)	Protective value ([2]; 37.5 ppm)	Protective value ([2]; 75 ppm)	Protective value ([1]; in vivo)	Protective value ([2]; in vivo)
2,3-dimethyl-6-t-butyl-8-fluoro-4-acetoxyacetylquinoline [Compound 11]	94	100	88	99				
2,3-dimethyl-6-t-butyl-8-fluoro-4-butyrylquinoline [Compound 4]					66	94		
2,3-dimethyl-6-t-butyl-8-fluoro-4-methoxyacetylquinoline [Compound 10]	99	100	90	100				
2,3-dimethyl-6-t-butyl-8-fluoro-4-n-butoxycarbonyl-quinoline [Compound 9]							99 and 90	98 and 87
2,3-dimethyl-6-t-butyl-8-fluoro-4-n-propoxycarbonyl-quinoline [Compound 8]							100 and 92	98 and 84
2,3-dimethyl-6-t-butyl-8-fluoro-4-valerylquinoline [Compound 5]	84	99			82	95		
Cc1nc2c(F)cc(C(C)(C)C)cc2c(O)c1C [Compound 1, 2,3-dimethyl-6-t-butyl-8-fluoro-4-hydroxyquinoline]	93	100						
